According to US8686150B2 (Sanofi, priority 2011, dated 2014):

target: T1, human full-length recombinant PKC βII (Homo sapiens, UniProt P05771); assay: Determination of PKC βII inhibition (Caliper mobility-shift kinase assay, Fluorescein-RFARKGSLRQKNV peptide substrate); assay type: biochemical; settings: example compounds at a final concentration of 1.14 μM (±0.15 μM)
T1 construct: Active human full-length recombinant PKC βII; purchased Invitrogen GmbH, Darmstadt, Germany
Experimental: Determination of PKC βII Inhibition
PKC βII Inhibition was Determined According to the Following Protocol:
Active human full-length recombinant PKC βII and the peptide substrate, Fluorescein-RFARKGSLRQKNV, were purchased from Invitrogen GmbH, Darmstadt, Germany. Adenosine-5′-triphosphate (ATP), bovine serum albumine (BSA), dimethylsulphoxide (DMSO), 4-(2-hydroxyethyl)piperazine-1-ethanesulfonic acid (Hepes), Triton X-100, 1,2-Dioleoyl-sn-glycerol (DAG), L-G-Phosphatidyl-L-serine (PS), calcium chloride (CaCl2), and Pluronic F-68 were purchased from Sigma-Aldrich, Munich, Germany. Magnesium chloride, 1 M sodium hydroxide solution, 1M hydrochloric acid solution and EDTA were obtained from Merck Biosciences, Darmstadt, Germany.
Test compounds were diluted to three times the test concentration in buffer 1 (30 mM Hepes-NaOH, pH 7.4, 0.01% Pluronic F-68 and 3% (v/v) DMSO). The PKC enzyme was diluted to a concentration of 30 ng/ml in buffer 2 (30 mM Hepes-NaOH, pH 7.4, 15 mM MgCl2, 150 μM CaCl2, 150 μg/ml PS, 60 μg/ml DAG, and 0.045% (w/v) Triton X-100). The peptide substrate and ATP were diluted to concentrations of 3 μM and 120 μM, respectively, in buffer 2. Two μl of the compound solution were mixed with 2 μl of the diluted enzyme in a 384-well small volume microtiter plate (Greiner, Bio-One, Frickenhausen, Germany), and the kinase reaction was initiated by addition of 2 μl of the solution containing peptide substrate and ATP. After 60 min incubation at 32° C., the reaction was stopped by addition of 20 μl of a solution containing 130 mM Hepes-NaOH, pH 7.4. 0.0195% (v/v) Brij-35, 6.5 mM EDTA. 0.13% chip coating reagent 3 (Caliper Lifescience Inc, Hopkinton, Mass.) and 6.5% (v/v) DMSO. Phosphorylation of the substrate peptide was then detected on a Caliper 3000 instrument essentially as described by Pommereau et al (J. Biomol. Screening 2004, 9(5), 409-416). Separation conditions were as follows: Pressure −0.8 psi, upstream voltage −3000 V, downstream voltage −800 V. Positive controls (buffer 1 instead of compound) and negative controls (buffer 1 instead of compound and buffer 2 instead of kinase solution) were run in parallel on each plate. Fractional turnover (R) was determined as the height of the peak of the phosphorylated peptide product divided by the sum of the unphosphorylated substrate and phosphorylated product peak heights. Percent-inhibition values for the test compounds were determined using the formula % Inhibition=100*(1−(Rcompound−Rnegative control)/(Rpositive control−Rnegative control).
In the following table % inhibition values observed with example compounds at a final concentration of 1.14 μM (±0.15 μM) are listed: […]

T1 sequence (P05771 1-673 isoform P05771-2): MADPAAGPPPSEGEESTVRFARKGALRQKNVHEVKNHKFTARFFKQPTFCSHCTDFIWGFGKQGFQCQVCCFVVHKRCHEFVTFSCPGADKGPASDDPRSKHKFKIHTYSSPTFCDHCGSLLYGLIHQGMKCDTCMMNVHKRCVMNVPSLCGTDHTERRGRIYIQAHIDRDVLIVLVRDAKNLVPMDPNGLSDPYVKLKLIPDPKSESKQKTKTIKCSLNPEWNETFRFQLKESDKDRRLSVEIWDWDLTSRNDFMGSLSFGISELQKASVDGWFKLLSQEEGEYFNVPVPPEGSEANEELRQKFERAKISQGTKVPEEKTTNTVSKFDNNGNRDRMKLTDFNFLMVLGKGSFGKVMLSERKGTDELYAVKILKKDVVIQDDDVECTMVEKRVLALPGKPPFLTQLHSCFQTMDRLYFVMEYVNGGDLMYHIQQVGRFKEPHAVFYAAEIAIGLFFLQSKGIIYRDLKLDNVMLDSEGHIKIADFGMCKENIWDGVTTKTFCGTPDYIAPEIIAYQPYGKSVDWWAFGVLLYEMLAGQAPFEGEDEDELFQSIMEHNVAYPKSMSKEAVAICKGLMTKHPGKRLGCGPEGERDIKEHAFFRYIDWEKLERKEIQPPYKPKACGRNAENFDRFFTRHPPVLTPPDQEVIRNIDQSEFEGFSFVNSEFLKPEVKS

inhibition at 1.14 µM [%]	Compound
96	Cc1n[nH]c2nc(-c3ccc(O)cc3)cc(C(=O)N3CCNCC3c3ccco3)c12 (stereo not shown) [Example 30, (2-Furan-2-yl-piperazin-1-yl)-[6-(4-hydroxy-phenyl)-3-methyl-1H-pyrazolo[3,4-b]pyridin-4-yl]-methanone]
99	Cc1n[nH]c2nc(-c3ccc(O)cc3)cc(C(=O)N3CCNCC3c3cccs3)c12 (stereo not shown) [Example 31, [6-(4-Hydroxy-phenyl)-3-methyl-1H-pyrazolo[3,4-b]pyridin-4-yl]-(2-thiophen-2-yl-piperazin-1-yl)-methanone]
98	Cc1n[nH]c2nc(-c3ccc(O)cc3)cc(C(=O)N3CCNCC3c3ccc4c(c3)OCO4)c12 (stereo not shown) [Example 32, (2-Benzo[1,3]dioxol-5-yl-piperazin-yl)-[6-(4-hydroxy-phenyl)-3-methyl-1H-pyrazolo[3,4-b]pyridin-4-yl]-methanone]
91	Cc1n[nH]c2nc(-c3ccc(O)cc3)cc(C(=O)N3CC(C(C)(C)N)C3)c12 [Example 33, [3-(1-Amino-1-methyl-ethyl)-azetidin-1-yl]-[6-(4-hydroxy-phenyl)-3-methyl-1H-pyrazolo[3,4-b]pyridin-4-yl]-methanone]
69	Cc1n[nH]c2nc(-c3ccc(O)cc3)cc(C(=O)N3CCC(CN)(c4ccccc4)CC3)c12 [Example 34, (4-Aminomethyl-4-phenyl-piperidin-1-yl)-[6-(4-hydroxy-phenyl)-3-methyl-1H-pyrazolo[3,4-b]pyridin-4-yl]-methanone]
52	Cc1n[nH]c2nc(-c3ccc(O)cc3)cc(C(=O)NCCN3CCCC3)c12 [Example 35, 6-(4-Hydroxy-phenyl)-3-methyl-1H-pyrazolo[3,4-b]pyridine-4-carboxylic acid (2-pyrrolidin-1-yl-ethyl)-amide]
40	Cc1n[nH]c2nc(-c3ccc(O)cc3)cc(C(=O)N3CCN(C(C)C)CC3)c12 [Example 36, [6-(4-Hydroxy-phenyl)-3-methyl-1H-pyrazolo[3,4-b]pyridin-4-yl]-(4-isopropyl-piperazin-1-yl)-methanone]
53	Cc1n[nH]c2nc(-c3ccc(O)cc3)cc(C(=O)N3CCN(C)CC3)c12 [Example 37, [6-(4-Hydroxy-phenyl)-3-methyl-1H-pyrazolo[3,4-b]pyridin-4-yl]-(4-methyl-piperazin-1-yl)-methanone]
80	Cc1n[nH]c2nc(-c3ccc(O)cc3)cc(C(=O)NCCN(C)C)c12 [Example 38, 6-(4-Hydroxy-phenyl)-3-methyl-1H-pyrazolo[3,4-b]pyridine-4-carboxylic acid (2-dimethylamino-ethyl)-amide]
45	Cc1n[nH]c2nc(-c3ccc(O)cc3)cc(C(=O)N3CCN(C4CCC4)CC3)c12 [Example 39, (4-Cyclobutyl-piperazin-1-yl)-[6-(4-hydroxy-phenyl)-3-methyl-1H-pyrazolo[3,4-b]pyridin-4-yl]-methanone]
38	Cc1n[nH]c2nc(-c3ccc(O)cc3)cc(C(=O)N(C)CCNC(C)(C)C)c12 [Example 40, 6-(4-Hydroxy-phenyl)-3-methyl-1H-pyrazolo[3,4-b]pyridine-4-carboxylic acid (2-tert-butylamino-ethyl)-methyl-amide]
95	Cc1n[nH]c2nc(-c3ccc(O)cc3)cc(C(=O)NC3(C)CCNCC3)c12 [Example 41, 6-(4-Hydroxy-phenyl)-3-methyl-1H-pyrazolo[3,4-b]pyridine-4-carboxylic acid (4-methyl-piperidin-4-yl)-amide]
72	Cc1n[nH]c2nc(-c3ccc(O)cc3)cc(C(=O)N3CCNCC34Cc3ccccc3C4)c12 [Example 42, (1,3-Dihydro-spiro[indene-2,2′-piperazin]-1′-yl)-[6-(4-hydroxy-phenyl)-3-methyl-1H-pyrazolo[3,4-b]pyridin-4-yl]-methanone]
81	Cc1n[nH]c2nc(-c3ccc(O)cc3)cc(C(=O)NC3CNCC3C)c12 (stereo not shown) [Example 43, 6-(4-Hydroxy-phenyl)-3-methyl-1H-pyrazolo[3,4-b]pyridine-4-carboxylic acid (4-methyl-pyrrolidin-3-yl)-amide]
83	CCOC1CNCC1NC(=O)c1cc(-c2ccc(O)cc2)nc2[nH]nc(C)c12 (stereo not shown) [Example 44, 6-(4-Hydroxy-phenyl)-3-methyl-1H-pyrazolo[3,4-b]pyridine-4-carboxylic acid (4-ethoxy-pyrrolidin-3-yl)-amide]
84	Cc1n[nH]c2nc(-c3ccc(O)cc3)cc(C(=O)NC3CNCC3c3ccccc3)c12 (stereo not shown) [Example 45, 6-(4-Hydroxy-phenyl)-3-methyl-1H-pyrazolo[3,4-b]pyridine-4-carboxylic acid (4-phenyl-pyrrolidin-3-yl)-amide]
76	CCCC1(N)CCN(C(=O)c2cc(-c3ccc(O)cc3)nc3[nH]nc(C)c23)CC1 [Example 46, (4-Amino-4-propyl-piperidin-1-yl)-[6-(4-hydroxy-phenyl)-3-methyl-1H-pyrazolo[3,4-b]pyridin-4-yl]-methanone]
70	CCCC1(N)CCN(C(=O)c2cc(-c3ccc(O)cc3)nc3[nH]nc(C)c23)C1 (stereo not shown) [Example 47, (3-Amino-3-propyl-pyrrolidin-1-yl)-[6-(4-hydroxy-phenyl)-3-methyl-1H-pyrazolo[3,4-b]pyridin-4-yl]-methanone]
70	CCCC1(N)CCCN(C(=O)c2cc(-c3ccc(O)cc3)nc3[nH]nc(C)c23)C1 (stereo not shown) [Example 48, (3-Amino-3-propyl-piperidin-1-yl)-[6-(4-hydroxy-phenyl)-3-methyl-1H-pyrazolo[3,4-b]pyridin-4-yl]-methanone]
97	CCC1(NC(=O)c2cc(-c3ccc(O)cc3)nc3[nH]nc(C)c23)CCNCC1 [Example 49, 6-(4-Hydroxy-phenyl)-3-methyl-1H-pyrazolo[3,4-b]pyridine-4-carboxylic acid (4-ethyl-piperidin-4-yl)-amide]
81	Cc1n[nH]c2nc(-c3ccc(O)cc3)cc(C(=O)NCCNC(C)C)c12 [Example 50, 6-(4-Hydroxy-phenyl)-3-methyl-1H-pyrazolo[3,4-b]pyridine-4-carboxylic acid (2-isopropylamino-ethyl)-amide]
85	COc1cccc(C(CN)NC(=O)c2cc(-c3ccc(O)cc3)nc3[nH]nc(C)c23)c1 (stereo not shown) [Example 51, 6-(4-Hydroxy-phenyl)-3-methyl-1H-pyrazolo[3,4-b]pyridine-4-carboxylic acid [2-amino-1-(3-methoxy-phenyl)-ethyl]-amide]
86	Cc1ccc(C(CN)NC(=O)c2cc(-c3ccc(O)cc3)nc3[nH]nc(C)c23)cc1 (stereo not shown) [Example 52, 6-(4-Hydroxy-phenyl)-3-methyl-1H-pyrazolo[3,4-b]pyridine-4-carboxylic acid (2-amino-1-p-tolyl-ethyl)-amide]
92	Cc1n[nH]c2nc(-c3ccc(O)cc3)cc(C(=O)N3CCNCC3)c12 [Example 53, [6-(4-Hydroxy-phenyl)-3-methyl-1H-pyrazolo[3,4-b]pyridin-4-yl]-piperazin-1-yl-methanone]
41	Cc1n[nH]c2nc(-c3ccc(O)cc3)cc(C(=O)N3CCN(C(N)=O)CC3)c12 [Example 54, 4-[6-(4-Hydroxy-phenyl)-3-methyl-1H-pyrazolo[3,4-b]pyridine-4-carbonyl]-piperazine-1-carboxylic acid amide]
27	O=C(c1cc(-c2ccc(O)cc2)nc2[nH]nc(C3CC3)c12)N1CCNCC1 [Example 55, [3-Cyclopropyl-6-(4-hydroxy-phenyl)-1H-pyrazolo[3,4-b]pyridin-4-yl]-piperazin-1-yl-methanone]
96	Cc1n[nH]c2nc(-c3ccc(O)cc3F)cc(C(=O)N3CCNCC3(C)C)c12 [Example 56, (2,2-Dimethyl-piperazin-1-yl)-[6-(2-fluoro-4-hydroxy-phenyl)-3-methyl-1H-pyrazolo[3,4-b]pyridin-4-yl]-methanone]
99	Cc1n[nH]c2nc(-c3ccc(O)cc3F)cc(C(=O)N3CCNC[C@H]3c3ccccc3)c12 [Example 57, [6-(2-Fluoro-4-hydroxy-phenyl)-3-methyl-1H-pyrazolo[3,4-b]pyridin-4-yl]-((R)-2-phenyl-piperazin-1-yl)-methanone]
